From patent US20160046579A1, “THERAPEUTIC COMPOUNDS AND COMPOSITIONS” (AGIOS PHARMACEUTICALS, INC., priority 2013, published 2016)

Columns and labels:
wt PKR [1] = biological target: T1, wt PKR (Homo sapiens, UniProt P30613); assay: wt PKR cell based assay
PKR R510Q = PKR R510Q (Homo sapiens, UniProt P30613, R510Q); assay: PKR Mutant Assay, dose response (AC50), PKR R510Q; assay type: biochemical; settings: PKR R510Q mutant enzyme
Procedure: (§1) • PKR or PKR mutant enzyme solution was diluted in assay buffer. • 2 μL of test compound was added into wells first, and then 180 μL reaction mix was added. • Reactions mixture with test compound was assembled except for ADP, and plates were stored for 60 minutes at room temperature. • 20 uL ADP was added to start reaction at room temperature and reaction progress was measured as changes in absorbance at 340 nm wavelength at room temperature.
(§2) Test Compound Preparation: • Test compound stock was made at 100× concentration in 100% DMSO (10 mM) • 1 to 3 dilutions were made for 11 points (i.e. 50 μl of first concentration added to 100 μl 100% DMSO to yield 3.33 mM, 50 μl of this added to 100 μl DMSO to yield 1.11 mM, and so forth) • 1 to 100 dilution into assay (2 μl in 200 μl) yielded starting concentration of 100 μM, decreasing 3 fold for 11 points.

PKR R532W = PKR R532W (Homo sapiens, UniProt P30613, R532W); assay: PKR Mutant Assay, dose response (AC50), PKR R532W; assay type: biochemical; settings: PKR R532W mutant enzyme
PKR R532W, sequence (P30613 whole entry R532W): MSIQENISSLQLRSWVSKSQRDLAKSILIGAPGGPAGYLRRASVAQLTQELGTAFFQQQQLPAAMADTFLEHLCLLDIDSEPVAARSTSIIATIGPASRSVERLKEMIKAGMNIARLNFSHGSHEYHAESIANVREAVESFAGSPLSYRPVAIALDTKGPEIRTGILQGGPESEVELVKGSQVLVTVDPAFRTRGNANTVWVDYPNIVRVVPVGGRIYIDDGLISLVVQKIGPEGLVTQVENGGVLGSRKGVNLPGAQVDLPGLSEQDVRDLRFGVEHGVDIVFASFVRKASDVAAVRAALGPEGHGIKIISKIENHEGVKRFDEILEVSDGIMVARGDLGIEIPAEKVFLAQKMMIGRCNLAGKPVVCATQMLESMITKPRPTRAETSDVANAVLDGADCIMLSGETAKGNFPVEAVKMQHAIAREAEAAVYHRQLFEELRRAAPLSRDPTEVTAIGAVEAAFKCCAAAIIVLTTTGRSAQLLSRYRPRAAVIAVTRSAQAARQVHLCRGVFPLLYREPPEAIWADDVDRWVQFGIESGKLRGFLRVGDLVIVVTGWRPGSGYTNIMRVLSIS
Procedure: as §1, §2

wt PKR [2] = biological target: T1, wt PKR; assay: PKR Mutant Assay, dose response (AC50), wild type PKR enzyme; assay type: biochemical; settings: wild type PKR enzyme
Procedure: as §1, §2

PKR R510Q, sequence (P30613 whole entry R510Q): as the sequence (P30613 whole entry R532W) above, with R510Q, W532R counted along it
T1 sequence (P30613 whole entry): as the sequence (P30613 whole entry R532W) above, with W532R counted along it

AC50 (wt PKR [1]) [nM]	AC50 (PKR R510Q) [nM]	AC50 (PKR R532W) [nM]	AC50 (wt PKR [2]) [nM]	SMILES
< 100	< 100	< 100	< 100	Cc1nscc1CC1(O)CCN(C(=O)c2ccc(NS(=O)(=O)c3cccc4ncsc34)cc2)CC1 [Compound 519, N-(4-(4-hydroxy-4-((3-methylisothiazol-4-yl)methyl)piperidine-1-carbonyl)phenyl)benzo[d]thiazole-7-sulfonamide]
101 to 1000	101 to 1000	< 100	< 100	Cc1n[nH]c(C)c1CC1(O)CCN(C(=O)c2ccc(NS(=O)(=O)c3cccc4scnc34)cc2)CC1 [Compound 514]
101 to 1000	101 to 1000	101 to 1000	101 to 1000	O=C(c1ccc(NS(=O)(=O)c2cccc3nccnc23)cc1)N1CCC(O)(C2CCC(O)CC2)CC1 (stereo not shown) [Compound 502, N-(4-(4-hydroxy-4-(4-hydroxycyclohexyl)piperidine-1-carbonyl)phenyl)quinoxaline-5-sulfonamide]
< 100	101 to 1000	< 100	< 100	CC(C)CC1(O)CCN(C(=O)c2ccc(NS(=O)(=O)c3cncc4cccnc34)cc2)CC1 [Compound 513, N-(4-(4-hydroxy-4-isobutylpiperidine-1-carbonyl)phenyl)-1,6-naphthyridine-8-sulfonamide]
101 to 1000	101 to 1000	101 to 1000	101 to 1000	CC(F)(F)CCC1(O)CCN(C(=O)c2ccc(NS(=O)(=O)c3cccc4nccnc34)cc2F)CC1 [Compound 478, N-(4-(4-(3,3-difluorobutyl)-4-hydroxypiperidine-1-carbonyl)-3-fluorophenyl)quinoxaline-5-sulfonamide]
< 100	< 100	< 100	< 100	Nc1cnc2c(S(=O)(=O)Nc3ccc(C(=O)N4CCC(O)(c5cccc(F)c5F)CC4)cc3)cccc2n1 [Compound 493, 2-amino-N-(4-(4-(2,3-difluorophenyl)-4-hydroxypiperidine-1-carbonyl)phenyl)quinoxaline-5-sulfonamide]
< 100	101 to 1000	< 100	< 100	CC(F)(F)CCC1(O)CCN(C(=O)c2ccc(NS(=O)(=O)c3cccc4nc(N)cnc34)cc2)CC1 [Compound 486, 2-amino-N-(4-(4-(3,3-difluorobutyl)-4-hydroxypiperidine-1-carbonyl)phenyl)quinoxaline-5-sulfonamide]
101 to 1000	101 to 1000	< 100	< 100	Cc1n[nH]c(C)c1CC1(O)CCN(C(=O)c2ccc(NS(=O)(=O)c3cccc4nccnc34)cc2)CC1 [Compound 512, N-(4-(4-((3,5-dimethyl-1H-pyrazol-4-yl)methyl)-4-hydroxypiperidine-1-carbonyl)phenyl)quinoxaline-5-sulfonamide]
< 100	< 100	< 100	< 100	Cc1ccccc1CC1(O)CCN(C(=O)c2ccc(NS(=O)(=O)c3cccc4scnc34)cc2)CC1 [Compound 125]
< 100	101 to 1000	< 100	< 100	O=C(c1ccc(NS(=O)(=O)c2cccc3scnc23)cc1)N1CCC(O)(c2sncc2Cl)CC1 [Compound 522, N-(4-(4-(4-chloroisothiazol-5-yl)-4-hydroxypiperidine-1-carbonyl)phenyl)benzo[d]thiazole-4-sulfonamide]
101 to 1000	101 to 1000	< 100	< 100	O=C(c1ccc(NS(=O)(=O)c2cccc3scnc23)cc1)N1CCC(O)(c2scnc2Cl)CC1 [Compound 480, N-(4-(4-(4-chlorothiazol-5-yl)-4-hydroxypiperidine-1-carbonyl)phenyl)benzo[d]thiazole-4-sulfonamide]
< 100	101 to 1000	< 100	< 100	Cc1noc(C)c1CC1(O)CCN(C(=O)c2ccc(NS(=O)(=O)c3cccc4nccnc34)cc2)CC1 [Compound 521, N-(4-(4-((3,5-dimethylisoxazol-4-yl)methyl)-4-hydroxypiperidine-1-carbonyl)phenyl)quinoxaline-5-sulfonamide]
101 to 1000	1010 to 10000	101 to 1000	101 to 1000	O=C(c1ccc(NS(=O)(=O)c2cccc3nccnc23)cc1)N1CCC(O)(Cc2cc[nH]n2)CC1 [Compound 500, N-(4-(4-((1H-pyrazol-3-yl)methyl)-4-hydroxypiperidine-1-carbonyl)phenyl)quinoxaline-5-sulfonamide]
101 to 1000	101 to 1000	< 100	< 100	O=C(c1ccc(NS(=O)(=O)c2cccc3nccnc23)cc1)N1CCC(O)(Cc2cn[nH]c2)CC1 [Compound 499, N-(4-(4-((1H-pyrazol-4-yl)methyl)-4-hydroxypiperidine-1-carbonyl)phenyl)quinoxaline-5-sulfonamide]
101 to 1000	101 to 1000	101 to 1000	101 to 1000	CC(F)(F)CCC1(O)CCN(C(=O)c2ccc(NS(=O)(=O)c3cccc4nccnc34)cc2C#N)CC1 [Compound 492]
101 to 1000	101 to 1000	< 100	< 100	Cc1cc(C2(O)CCN(C(=O)c3ccc(NS(=O)(=O)c4cccc5scnc45)cc3)CC2)sn1 [Compound 479]
< 100	101 to 1000	< 100	< 100	Cn1nccc1CC1(O)CCN(C(=O)c2ccc(NS(=O)(=O)c3cccc4nccnc34)cc2)CC1 [Compound 508, N-(4-(4-hydroxy-4-((1-methyl-1H-pyrazol-5-yl)methyl)piperidine-1-carbonyl)phenyl)quinoxaline-5-sulfonamide]
< 100	< 100	< 100	< 100	Cc1nscc1CC1(O)CCN(C(=O)c2ccc(NS(=O)(=O)c3cccc4nccnc34)cc2)CC1 [Compound 497, N-(4-(4-hydroxy-4-((3-methylisothiazol-4-yl)methyl)piperidine-1-carbonyl)phenyl)quinoxaline-5-sulfonamide]
< 100	101 to 1000	101 to 1000	101 to 1000	CC(C)CC1(OC(=O)OCOP(=O)(O)O)CCN(C(=O)c2ccc(NS(=O)(=O)c3cccc4nccnc34)cc2)CC1 [Compound 527, 4-isobutyl-1-(4-(quinoxaline-5-sulfonamido)benzoyl)piperidin-4-yl phosphonooxymethyl carbonate]
< 100	< 100	< 100	< 100	Nc1cnc2c(S(=O)(=O)Nc3ccc(C(=O)N4CCC(O)(CCCC(F)(F)F)CC4)cc3)cccc2n1 [Compound 482, 2-amino-N-(4-(4-hydroxy-4-(4,4,4-trifluorobutyl)piperidine-1-carbonyl)phenyl)quinoxaline-5-sulfonamide]
101 to 1000	101 to 1000	< 100	< 100	Cc1cc(CC2(O)CCN(C(=O)c3ccc(NS(=O)(=O)c4cccc5nccnc45)cc3)CC2)sn1 [Compound 511, N-(4-(4-hydroxy-4-((3-methylisothiazol-5-yl)methyl)piperidine-1-carbonyl)phenyl)quinoxaline-5-sulfonamide]
101 to 1000	101 to 1000	101 to 1000	101 to 1000	CC(F)(F)CCC1(O)CCN(C(=O)c2ccc(NS(=O)(=O)c3cc(F)cc4sc(N)nc34)cc2C#N)CC1 [Compound 491, 2-amino-N-(3-cyano-4-(4-(3,3-difluorobutyl)-4-hydroxypiperidine-1-carbonyl)phenyl)-6-fluorobenzo[d]thiazole-4-sulfonamide]
101 to 1000	1010 to 10000	101 to 1000	101 to 1000	O=C(c1ccc(NS(=O)(=O)c2cccc3nccnc23)cc1)N1CCC(O)(Cc2c(O)n[nH]c2C(F)(F)F)CC1 [Compound 523]
101 to 1000	101 to 1000	101 to 1000	101 to 1000	O=C(c1ccc(NS(=O)(=O)c2cccc3scnc23)cc1)N1CCC(O)(C2CCC(O)CC2)CC1 (stereo not shown) [Compound 501, N-(4-(4-hydroxy-4-(4-hydroxycyclohexyl)piperidine-1-carbonyl)phenyl)benzo[d]thiazole-4-sulfonamide]
101 to 1000	101 to 1000	< 100	< 100	CC(F)(F)CCC1(O)CCN(C(=O)c2ccc(NS(=O)(=O)c3cccc4scnc34)cc2OC(F)F)CC1 [Compound 473, N-(4-(4-(3,3-difluorobutyl)-4-hydroxypiperidine-1-carbonyl)-3-(difluoromethoxy)phenyl)benzo[d]thiazole-4-sulfonamide]
